This is an account of results in patent publication US4906661A, “Esters of aryloxypropanolamine derivatives” (E. I. Du Pont de Nemours and Company, priority 1989, dated 1990).

Usually share remaining stands for what is left of the initial amount, in per cent.

Series [1] deals with β-adrenergic receptors, guinea pig trachea vs right atria. Kind of series: Cardioselectivity, KB trachea/KB atria. It is filed as cell-based. The following applies: 10^(pA2 atria-pA2 trachea); ratio greater than one indicates cardioselectivity.
Description: Each tissue was suspended between a fixed glass rod and a Statham Universal Transducer connected to a Beckman recorder. Atria were allowed to beat spontaneously under a loading tension of approximately 0.5 gm. Intrinsic depressant or stimulant activity was determined for each compound by progressively increasing concentrations in the tissue baths at 60-minute intervals. Tissues were not washed between increments. The maximum concentration showing little or no cardiodepressant activity was chosen for blockade experiments. Changes in rate in response to isoproterenol, a standard β-receptor agonist, were measured in the absence and presence of test compounds. Spiral strips of guinea pig trachea were suspended under 5 gm resting tension and incubated with phentolamine, tropolone and cocaine. Active tension was generated by addition of carbachol (3.0×10^-7 M) and decreases in tension in response to isoproterenol were quantitated. Cumulative concentration-response curves were produced with isoproterenol both before and after 60-minute incubation of test compounds with atria and trachea. […] The degree of cardioselectivity was estimated from the ratio, KB trachea/KB atria (10^(pA2 atria-pA2 trachea)). A ratio greater than one indicates cardioselectivity. Test drugs were dissolved in distilled water and added to the bath (30 ml) in a volume of 10 or 100 μl.
A short description of series [2]: Enzymatic hydrolysis by dog aqueous humor (procedure C). The series is classed as in vitro ADME. As to conditions: for remaining at 1 h / remaining at 2 h: 37° C., procedure C; for remaining at 1 h: read-out: % Drug remaining, 1 HR, dog aqueous humor; for remaining at 2 h: read-out: % Drug remaining, 2 HR, dog aqueous humor; for half-life: approximate value, determined by procedure C, read-out: T1/2 dog aqueous humor; for metabolised at 2 h: two hours, read-out: hydrolyzed in aqueous humor after two hours. From the text:
(§1) Chemicals--Acetonitrile was "HPLC" grade. Distilled water was used to dissolve the compounds and 0.01 N HCl was used to dissolve compounds requiring an acidic pH for dissolution. Enzyme Source--Fresh aqueous humor was collected from eyes of dogs using a 23-gauge needle while fresh dog blood was collected into heparinized Vacutainer tubes. Fresh liver was homogenized in 0.9% NaCl using a Potter-Elvehjem Teflon pestle and glass homogenizer to make a 25% (W/V) homogenate. […] Denatured tissue controls were prepared by adding 2.0 ml of acetonitrile into 0.5 ml of aqueous humor, blood, or liver homogenate to destroy esterase activities prior to addition of the β-blockers. These controls were then incubated at 37° C. for 120 min. […] Sample Processing and Data Analyses--All samples were centrifuged at 4000 RPM for 10 min to sediment denatured proteins. The resultant supernatants were transferred to WISP.cndot. vials and analyzed using an HPLC assay developed for beta blockers. The hydrolysis of β-blockers by aqueous humor, blood, and liver homogenate was determined by disappearance of the compounds. The extent of enzymatic hydrolysis by each tissue was determined by comparing the amount of each compound (absolute peak area) recovered at each time point to the amount of each compound (absolute peak area) in denatured tissue control and aqueous control samples.

Series [3] can be described thus: Half-life in dog liver homogenate (procedure D). As to conditions: 37° C., read-out: T1/2 dog liver homogenate. The series is classed as in vitro ADME. The method, then:
(§2) In each experiment, 1 ml of a solution containing 50 μg of the test compound was added to 1 ml of whole blood or 1 ml of a 33% (w/v) liver homogenate. The samples were incubated in a Dubnoff shaking metabolic incubator for 2.5, 5.0, 10.0, 20.0, 30.0 and 60.0 minutes at 37° C. At the designated time periods, the test mixtures were removed from the incubator and transferred to a 0° C. ice bath. Acetonitrile (2 ml) was immediately added and the mixtures were mixed to stop enzymatic hydrolysis. Zero time samples were prepared by adding 2 ml of acetonitrile to denature the proteins prior to addition of the test compounds. After centrifugation to sediment denatured proteins, 2 ml of the supernatant was removed and analyzed by high pressure liquid chromatography, using a mobile phase of 60% acetonitrile/40% 0.05 M sodium phosphate buffer (pH 6.6), a U.V. detector and Waters μ Bondapak Phenyl column.
(§3) The half life of each test compound was determined graphically by plotting the decrease in concentrations as a function of time.

The nature of series [4]: Half-life in dog whole blood (procedure D). The series is classed as in vitro ADME. As to conditions: 37° C., read-out: T1/2 dog blood. On the procedure:
as §2, §3

The nature of series [5]: Enzymatic hydrolysis by dog liver homogenate (procedure C). It is filed as in vitro ADME. As to conditions: for remaining at 1 h / remaining at 2 h / half-life: dog, liver homogenate; for remaining at 1 h / remaining at 2 h: 37° C., procedure C; for remaining at 1 h: read-out: % Drug remaining, 1 HR, dog liver homogenate; for remaining at 2 h: read-out: % Drug remaining, 2 HR, dog liver homogenate; for half-life: approximate value, determined by procedure C, read-out: T1/2 dog liver homogenate.
Excerpt: as §1

The target of series [6] is β2 receptors, guinea pig trachea (Cavia porcellus, UniProt Q8K4Z4). Put plainly: cell-based. The following applies: Table I; guinea pig trachea, vs isoproterenol; -log KB; read-out: PA2 Trachea (converted). On the procedure:
Each tissue was suspended between a fixed glass rod and a Statham Universal Transducer connected to a Beckman recorder. Atria were allowed to beat spontaneously under a loading tension of approximately 0.5 gm. Intrinsic depressant or stimulant activity was determined for each compound by progressively increasing concentrations in the tissue baths at 60-minute intervals. Tissues were not washed between increments. […] Changes in rate in response to isoproterenol, a standard β-receptor agonist, were measured in the absence and presence of test compounds. Spiral strips of guinea pig trachea were suspended under 5 gm resting tension and incubated with phentolamine, tropolone and cocaine. Active tension was generated by addition of carbachol (3.0×10^-7 M) and decreases in tension in response to isoproterenol were quantitated. Cumulative concentration-response curves were produced with isoproterenol both before and after 60-minute incubation of test compounds with atria and trachea. […] The blocking potency of test compounds was estimated by computing pA2 values (-log KB) by the method of Furchgott, the Pharmacological Differentiation of Adrenergic Receptors, Ann. […] A ratio greater than one indicates cardioselectivity. Test drugs were dissolved in distilled water and added to the bath (30 ml) in a volume of 10 or 100 μl.

Series [7] in a line: Enzymatic hydrolysis by dog blood (procedure C). As to conditions: 37° C.; for remaining at 1 h: read-out: % Drug remaining, 1 HR, dog blood; for remaining at 2 h: read-out: % Drug remaining, 2 HR, dog blood. The series is classed as in vitro ADME. The method, then: Chemicals--Acetonitrile was "HPLC" grade. Distilled water was used to dissolve the compounds and 0.01 N HCl was used to dissolve compounds requiring an acidic pH for dissolution.
Enzyme Source--Fresh aqueous humor was collected from eyes of dogs using a 23-gauge needle while fresh dog blood was collected into heparinized Vacutainer tubes. Fresh liver was homogenized in 0.9% NaCl using a Potter-Elvehjem Teflon pestle and glass homogenizer to make a 25% (W/V) homogenate.
Incubation Condition--A 0.5 ml aliquot of dog aqueous humor, blood, or liver homogenate was incubated with 12.5 μg (0.5 ml) of β-blocker in a Dubnoff shaking metabolic incubator at 37° C. for 60 and 120 min. Denatured tissue controls were prepared by adding 2.0 ml of acetonitrile into 0.5 ml of aqueous humor, blood, or liver homogenate to destroy esterase activities prior to addition of the β-blockers. These controls were then incubated at 37° C. for 120 min. After 60 and 120 min, the incubations were terminated by addition of 2 ml of acetonitrile and immediately mixed by a Vortex.cndot. to stop esterase activities.
Sample Processing and Data Analyses--All samples were centrifuged at 4000 RPM for 10 min to sediment denatured proteins. The resultant supernatants were transferred to WISP.cndot. vials and analyzed using an HPLC assay developed for beta blockers. The hydrolysis of β-blockers by aqueous humor, blood, and liver homogenate was determined by disappearance of the compounds. The extent of enzymatic hydrolysis by each tissue was determined by comparing the amount of each compound (absolute peak area) recovered at each time point to the amount of each compound (absolute peak area) in denatured tissue control and aqueous control samples.

β2 receptors, guinea pig trachea, sequence (Q8K4Z4 whole entry): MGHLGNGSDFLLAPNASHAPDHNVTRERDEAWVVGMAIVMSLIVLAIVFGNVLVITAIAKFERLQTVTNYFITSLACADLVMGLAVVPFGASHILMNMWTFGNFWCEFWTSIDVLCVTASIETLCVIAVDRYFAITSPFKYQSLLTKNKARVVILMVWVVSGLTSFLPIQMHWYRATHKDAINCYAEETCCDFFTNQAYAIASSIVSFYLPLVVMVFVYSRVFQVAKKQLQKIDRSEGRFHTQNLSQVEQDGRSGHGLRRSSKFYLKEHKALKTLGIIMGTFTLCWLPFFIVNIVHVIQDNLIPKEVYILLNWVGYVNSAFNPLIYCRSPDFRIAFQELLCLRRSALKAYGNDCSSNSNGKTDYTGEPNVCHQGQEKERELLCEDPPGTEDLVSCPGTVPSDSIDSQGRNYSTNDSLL

Take `COC(=O)c1ccccc1OCC(O)CNCCNC(=O)Cc1ccccc1` (stereo not shown) [III, Methyl 2-[2-Hydroxy-3-[N-[2-(phenylacetamido)ethyl]amino]propoxy]benzoate]: the “Cardioselectivity KB (Trachea)/KB (Atria)” value (from here on “Cardioselectivity KB”) in series [1] is listed as 4. Also, the fraction remaining at 1 h in series [2] was determined as 100%; in series [5], 0%; in series [7], 53%. The share remaining at 2 h in series [2] turned out to be 98%; in series [5], 0%; in series [7], 23%. Further, the half-life was more than 2 h in series [2], 2.15 h in series [3], 1.22 ± 0.267 h in series [4] and less than 1 h in series [5]. Moreover, the metabolised at 1 h in series [2] (one hour, read-out: hydrolyzed in aqueous humor after one hour) amounted to 0%. In series [2], the metabolised at 2 h turned out to be 2%. Besides, in series [6], the Kb was 20 nM.

In the case of `COC(=O)c1ccccc1OCC(O)CNCCNC(C)=O` (stereo not shown) [Example I, Methyl 2-[2-Hydroxy-3-[N-2(-acetamidoethyl)amino]propoxy]benzoate], the “Cardioselectivity KB” value in series [1] stood at 2. Moreover, the share remaining at 1 h in series [2] was found to be 93%; in series [5], 0%; in series [7], 54%. In addition, the share remaining at 2 h in series [2] was 93%; in series [5], 0%; in series [7], 47%. The half-life was more than 2 h in series [2], 2.78 h in series [3], 1.03 ± 0.133 h in series [4] and less than 1 h in series [5]. In addition, the metabolised at 2 h in series [2] was 7%. Moreover, the “hydrolysis in liver homogenate” value in series [5] (within 60 minutes) is reported as “completely hydrolyzed”. For the same compound, the Kb in series [6] was 100 nM.

Turning to `COC(=O)c1ccccc1OCC(O)CNCCNC(=O)C(C)C` (stereo not shown) [II, Methyl 2-[2-Hydroxy-3-[N-[2-(2-methylpropionamido)ethyl]amino]propoxy]benzoate], in series [1], the “Cardioselectivity KB” value amounted to 4. The amount remaining at 1 h amounted to 94% in series [2], 0% in series [5] and 41% in series [7]. Besides, the share remaining at 2 h was 91% in series [2], 0% in series [5] and 16% in series [7]. Further, the half-life was more than 2 h in series [2], more than 3 h in series [3], 1.03 ± 0.05 h in series [4] and less than 1 h in series [5]. Also, the Kb in series [6] was 31.6 nM.
